In brackets after ≈: the same amount, converted by molar mass. Several values for one entry are separate records, joined by “and”; a condition that tells them apart may be missing. Equal entries are not always repeated. Where two headings read alike, the source gives them in different places. Where a SMILES comes first, the peptide text is derived from it. Bridges are numbered along the chain shown (N, C = ends).
Tests used:
C. perfringens JT1 [1] = assay: microbe, parasite or virus in culture; conditions: Clostridium perfringens, JT1, 18 h
C. perfringens CVCC 51 [2] = assay: microbe, parasite or virus in culture; conditions: Clostridium perfringens, CVCC51, 18 h
C. perfringens JZ10 [3] = assay: microbe, parasite or virus in culture; conditions: Clostridium perfringens, JZ10, 18 h
C. perfringens JC2 [4] = assay: microbe, parasite or virus in culture; conditions: Clostridium perfringens, JC2, 18 h
C. perfringens CVCC 1137 [5] = assay: microbe, parasite or virus in culture; conditions: Clostridium perfringens, CVCC1137, 18 h
C. perfringens CVCC 46 [6] = assay: microbe, parasite or virus in culture; conditions: Clostridium perfringens, CVCC46, read-out: MICa (MIC of drug used alone)
C. perfringens CVCC 46 [7] = conditions: for FIC: MIC in combination / MIC alone
C. perfringens CVCC 46 [8] = assay: microbe, parasite or virus in culture; conditions: Clostridium perfringens, CVCC46, 18 h
C. perfringens CVCC 46 [9] = assay type: cell-based, Clostridium perfringens type A
[10] = system: C. perfringens genomic DNA; assay type: binding, Clostridium perfringens
C. perfringens CVCC 51 [11] = conditions: CVCC 51, 18 h
C. perfringens JT1 [12] = conditions: JT1, 18 h
C. perfringens CVCC 1137 [13] = conditions: CVCC 1137, 18 h
C. perfringens CVCC 46 [14] = conditions: CVCC 46, 18 h
[15] = system: C. perfringens type C CVCC 61 cells; conditions: cited from earlier work
C. perfringens JC2 [16] = conditions: JC2, 18 h
C. perfringens JZ10 [17] = conditions: JZ10, 18 h
C. perfringens CVCC 46 [18] = assay type: cell-based, Clostridium perfringens type A; remark: listed apart in the source
[19] = system: C. perfringens CVCC 46 genomic DNA; assay type: binding, Clostridium perfringens type A
C. perfringens CVCC 46 [20] = assay type: cell-based, Clostridium perfringens type A; remark: listed apart in the source
[21] = CVCC 46, 2×MIC, 1×10^5 CFU/mL, 37°C, colony counts

For `CN(C)[C@@H]1C(O)=C(C(N)=O)C(=O)[C@@]2(O)C(O)=C3C(=O)c4c(O)ccc(Cl)c4[C@@](C)(O)[C@H]3C[C@@H]12` [Aureomycin], the MIC (C. perfringens JT1 [1]) was 16.7 µM (≈ 8 µg/mL), the MIC (C. perfringens CVCC 51 [2]) was 1.04 µM (≈ 0.498 µg/mL) and the MIC (C. perfringens JZ10 [3]) was 16.7 µM (≈ 8 µg/mL). It also gave an MIC (C. perfringens JC2 [4]) of 16.7 µM (≈ 8 µg/mL), an MIC (C. perfringens CVCC 1137 [5]) of 0.52 µM (≈ 0.249 µg/mL) and an MIC (C. perfringens CVCC 46 [6]) of 8.36 µM. For the same compound, the “MICC (MIC of drug used in combination)” value (C. perfringens CVCC 46 [7]; combination Aureomycin-MP1102, CVCC 46) was 2.09 µM, the FIC (C. perfringens CVCC 46 [7]; combination Aureomycin-MP1102) was 0.25 and the “MICC (MIC of drug used in combination)” value (C. perfringens CVCC 46 [7]; combination Aureomycin-NZ2114, CVCC 46) was 4.18 µM. The FIC (C. perfringens CVCC 46 [7]; combination Aureomycin-NZ2114) was 0.5, the MBC (C. perfringens CVCC 46 [8]) was 8.36 µM (≈ 4 µg/mL) and the MIC (C. perfringens CVCC 46 [8]) was 4.18 µM (≈ 2 µg/mL). The “Time to 99.9% reduction of bacterial counts” value (“Time to 99.9% reduction” for short) (C. perfringens CVCC 46 [9]; [21]) was 2~4 h and the “Bacterial regrowth in time-kill curve” value (C. perfringens CVCC 46 [9]; CVCC 46, 2×MIC, followed for 10 h) was “regrowth of C. perfringens strain CVCC 46 was observed”.

In the case of `CCC[C@@H]1C[C@@H](C(=O)N[C@@H]([C@H]2O[C@H](SC)[C@H](O)[C@@H](O)[C@H]2O)[C@@H](C)O)N(C)C1` [Lincomycin], the MIC (C. perfringens JT1 [1]) is reported as 2.2 µM (≈ 0.894 µg/mL), the MIC (C. perfringens CVCC 51 [2]) is reported as 4.3 µM (≈ 1.75 µg/mL) and the MIC (C. perfringens JZ10 [3]) is reported as > 278 µM. The MIC (C. perfringens JC2 [4]) was > 278 µM, the MIC (C. perfringens CVCC 1137 [5]) was 2.17 µM (≈ 0.882 µg/mL) and the MIC (C. perfringens CVCC 46 [6]) was 8.68 µM. The “MICC (MIC of drug used in combination)” value (C. perfringens CVCC 46 [7]; combination Lincomycin-MP1102, CVCC 46) was 4.34 µM, the FIC (C. perfringens CVCC 46 [7]; combination Lincomycin-MP1102) was 0.5 and the “MICC (MIC of drug used in combination)” value (C. perfringens CVCC 46 [7]; combination Lincomycin-NZ2114, CVCC 46) was 4.34 µM. The FIC (C. perfringens CVCC 46 [7]; combination Lincomycin-NZ2114) was 0.5, the MBC (C. perfringens CVCC 46 [8]) was 8.68 µM (≈ 3.53 µg/mL) and the MIC (C. perfringens CVCC 46 [8]) was 8.68 µM (≈ 3.53 µg/mL). For the same compound, the “Time to 99.9% reduction” value (C. perfringens CVCC 46 [9]; [21]) was 2~4 h.

In the case of `CC[C@H](C)[C@@H]1NC(=O)[C@H](CO)NC(=O)[C@H](CCCCN)NC(=O)[C@@H]2CSSC[C@@H](C(=O)N[C@@H](Cc3ccc(O)cc3)C(=O)O)NC(=O)[C@H](CCCCN)NC(=O)[C@@H]3CSSC[C@H](NC(=O)[C@H](CCCCN)NC(=O)[C@H](C(C)C)NC(=O)[C@H](CC(=O)O)NC(=O)[C@H](CC(=O)O)NC(=O)[C@H](CCC(=O)O)NC(=O)[C@H](CCC(N)=O)NC(=O)[C@H](Cc4c[nH]c5ccccc45)NC(=O)[C@@H]4CCCN4C(=O)CNC(=O)[C@H](CC(N)=O)NC(=O)[C@@H](NC(=O)CNC(=O)[C@H](Cc4ccccc4)NC(=O)CN)CSSC[C@H](NC(=O)[C@H](Cc4ccc(O)cc4)NC(=O)CNC(=O)CNC(=O)[C@H](CCCCN)NC(=O)[C@H](Cc4ccc(O)cc4)NC(=O)CNC(=O)[C@H](CCCCN)NC1=O)C(=O)N[C@@H](C)C(=O)N[C@@H](CCCCN)C(=O)NCC(=O)NCC(=O)N[C@@H](Cc1ccccc1)C(=O)N[C@@H](C(C)C)C(=O)N3)C(=O)N[C@@H](Cc1c[nH]cn1)C(=O)N[C@@H](CC(N)=O)C(=O)N[C@@H](Cc1c[nH]cn1)C(=O)N2` [MP1102] (H-GFGCNGPWQEDDVKCHNHCKSIKGYKGGYCAKGGFVCKCY-OH; disulfide 4-30, 15-37, 19-39), the “Change of CD spectrum of genomic DNA” value [10] is reported as “DNA ellipticity intensity decreased”, the MIC (C. perfringens CVCC 51 [11]) is reported as 0.91 µM (≈ 3.99 µg/mL) and the MIC (C. perfringens JT1 [12]) is reported as 0.46 µM (≈ 2.02 µg/mL). The MIC (C. perfringens CVCC 1137 [13]) was 1.82 µM (≈ 7.98 µg/mL), the MBC (C. perfringens CVCC 46 [14]) was 0.91 µM (≈ 3.99 µg/mL) and the MIC (C. perfringens CVCC 46 [14]) was 0.91 µM (≈ 3.99 µg/mL). For the same compound, the “PI-stained percentages of cells” value [15] was 3.11~5.67%, the MIC (C. perfringens JC2 [16]) was >14.5 µM and the MIC (C. perfringens JZ10 [17]) was >14.5 µM. The “MICa (MIC of drug used alone)” value (C. perfringens CVCC 46 [7]) was 1.82 µM, the “FICI, range over the tested antibiotics” value (C. perfringens CVCC 46 [7]; CVCC 46) was 0.375~1.0 and the “Ratio of cells in phase I” value (C. perfringens CVCC 46 [18]) was 8.14% and 13.65%. The “Binding to genomic DNA (gel retardation)” value [19] was “interacted with MDR C. perfringens CVCC 46 genomic DNA”, the “Peptide/DNA mass ratio for complete retardation of DNA migration” value [19] was > 10.0 and the “PI-stained percentages of cells, range over time” value (C. perfringens CVCC 46 [20]) was 36.5~96.7%. The “Bacterial regrowth in time-kill curve” value (C. perfringens CVCC 46 [9]) was “no bacterial regrowth” and the “Time to 99.9% reduction” value (C. perfringens CVCC 46 [9]) was ≤ 1 h.

From publication PMC5608353 (PLoS ONE, 2017)
